Data from patent US8748483B2, “Use of substituted pyranone acid derivatives for the treatment of metabolic syndrome” (SANOFI, priority 2007, dated 2014).
pEC50: −log10 of the molar value. Each block holds one compound with its values, some of them ahead of it.

Experiments:
[1] = target: T1, GPCR HM74A (niacin receptor) (Homo sapiens, UniProt Q8TDS4); experiment: FLIPR in vitro functional assay, intracellular Ca2+ in recombinant HEK293 cells expressing HM74A and Gα6qi4myr; type: cell-based; settings: 100% = 1 μM niacin
T1 construct: expressed in transfected cells; host or cells: HEK293
T1 sequence (Q8TDS4 whole entry): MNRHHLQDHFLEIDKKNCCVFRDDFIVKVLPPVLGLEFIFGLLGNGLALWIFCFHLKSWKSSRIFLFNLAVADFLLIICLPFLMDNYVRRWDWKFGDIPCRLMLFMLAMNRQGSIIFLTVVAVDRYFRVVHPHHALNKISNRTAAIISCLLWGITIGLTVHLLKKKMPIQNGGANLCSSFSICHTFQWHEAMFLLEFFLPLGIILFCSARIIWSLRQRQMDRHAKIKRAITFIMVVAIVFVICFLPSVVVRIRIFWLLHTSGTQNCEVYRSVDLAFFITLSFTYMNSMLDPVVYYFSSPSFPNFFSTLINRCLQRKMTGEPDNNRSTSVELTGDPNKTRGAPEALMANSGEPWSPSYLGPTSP
Method: Function-testing assays were carried out by means of the FLIPR technique (“Fluorescence Imaging Plate Reader”, Molecular Devices Corp.). For this purpose, agonist-induced changes in the intracellular concentration of Ca^2+ in recombinant HEK293 cells which express both the GPCR HM74A (niacin receptor) and the hybrid G-protein Gα6qi4myr (see, for example, DE patent application 10033353) were determined.
For the investigations, cells were seeded into 96-well microtiter plates (60 000 cells/well) and allowed to grow overnight. The medium was removed and the cells were incubated in buffer which contained the fluorescent dye Fluo-4. After this loading with dye, the cells were washed, test substance was added, and changes in the intracellular Ca^2+ concentration were measured in the FLIPR apparatus. Results have been shown as percentage change relative to the control (0%: no test substance added; 100%:1 μM reference agonist niacin added), used to calculate dose/activity plots and EC50 values determined.

lipolysis = experiment: Inhibition of lipolysis in the whole animal after p.o. administration (FFA, glycerol, triglycerides in blood); type: in vivo, Wistar rats
Method: The effect was tested on the whole animal (mouse, rat, hamster or dog), after a fasting period (e.g. of about 16 hours the substance is administered (e.g. p.o., iv., i.p., s.c.) and, with or without additional stimulation of endogenous lipolysis (e.g. by a bolus injection of 2 mg/kg i.p. isoprenaline), the effect of the test substance on lipolysis is determined on the basis of the liberated free fatty acids (FFA), glycerol and triglycerides by obtaining a blood sample (e.g. by retroorbital blood sampling) e.g. 15 min, 30, 60, 120 etc minutes after p.o. administration, and analyzing by standard methods of clinical chemistry (e.g. L. Thomas: Labor and Diagnose, 2nd edition, Medizinische Verlagsgesellschaft, Marburg/L. 1984; ISBN 3-921320-10-9)). The inhibition of lipolysis by the inhibitors is analyzed by comparing with the rate of lipolysis in correspondingly treated control animals.

[2] = 3 mg/kg po, 15 min, Wistar rats
[3] = 3 mg/kg po, 30 min, Wistar rats
[4] = 3 mg/kg po, 60 min, Wistar rats
[5] = 3 mg/kg po, 120 min, Wistar rats
[6] = 3 mg/kg po, time 0, Wistar rats
[7] = 1 mg/kg po, 30 min, Wistar rats
[8] = 1 mg/kg po, 60 min, Wistar rats
[9] = 1 mg/kg po, 120 min, Wistar rats
[10] = 1 mg/kg po, time 0, Wistar rats
[11] = 10 mg/kg po, 30 min, Wistar rats
[12] = 10 mg/kg po, 60 min, Wistar rats
[13] = 10 mg/kg po, 120 min, Wistar rats
[14] = 10 mg/kg po, time 0, Wistar rats

- pEC50 [1]: 7.15
Structure (SMILES): C/C=C/c1oc(C(=O)O)cc(=O)c1OCC(F)(F)F [Example 36]

- pEC50 [1]: 4.35
Structure (SMILES): O=C(O)c1cc(=O)c(OCc2ccc(C(F)(F)F)cc2)co1 [Example 29]

- pEC50 [1]: 6.12
Structure (SMILES): O=C(O)c1cc(=O)c(OCCCF)co1 [Example 25]

- pEC50 [1]: 5.16
Structure (SMILES): CC(C)OC(=O)/C=C/c1coc(C(=O)O)cc1=O [Example 41]

- pEC50 [1]: 6.85
Structure (SMILES): C/C=C/c1oc(C(=O)O)cc(=O)c1CCCC [Example 38]

- pEC50 [1]: 7.05
Structure (SMILES): O=C(O)c1cc(=O)cco1 [Example 1]
- lipolysis (reduction in FFA, glycerol and triglycerides) (lipolysis; 3 mg/kg po): distinctly reduced
- FFA (lipolysis; [2]): 0.22 mmol/L
- Glycerol (lipolysis; [2]): 55 µmol/L
- Triglycerides (lipolysis; [2]): 0.48 mmol/L
- FFA (lipolysis; [3]): 0.14 mmol/L
- Glycerol (lipolysis; [3]): 43 µmol/L
- Triglycerides (lipolysis; [3]): 0.28 mmol/L
- FFA (lipolysis; [4]): 0.16 mmol/L
- Glycerol (lipolysis; [4]): 43 µmol/L
- Triglycerides (lipolysis; [4]): 0.21 mmol/L
- FFA (lipolysis; [5]): 0.28 mmol/L
- Glycerol (lipolysis; [5]): 74 µmol/L
- Triglycerides (lipolysis; [5]): 0.25 mmol/L
- FFA (lipolysis; [6]): 0.55 mmol/L
- Glycerol (lipolysis; [6]): 117 µmol/L
- Triglycerides (lipolysis; [6]): 0.53 mmol/L

- pEC50 [1]: 5.32
Structure (SMILES): Cc1ccc(/C=C/c2coc(C(=O)O)cc2=O)cc1 [Example 44]

- pEC50 [1]: 5.74
Structure (SMILES): O=C(O)c1cc(=O)c(OCc2ccc(OC(F)F)cc2)co1 [Example 28]

- pEC50 [1]: 5.92
Structure (SMILES): CCOC(=O)/C=C/c1coc(C(=O)O)cc1=O [Example 40, 5-((E)-2-ethoxycarbonylvinyl)-4-oxo-4H-pyran-2-carboxylic acid]

- pEC50 [1]: 6.68
Structure (SMILES): CC(C)CCc1coc(C(=O)O)cc1=O [Example 49, 5-(3-methylbutyl)-4-oxo-4H-pyran-2-carboxylic acid]

- pEC50 [1]: 6.62
Structure (SMILES): C/C=C/c1oc(C(=O)O)cc(=O)c1OCc1ccc([N+](=O)[O-])cc1 [Example 17]

- pEC50 [1]: 4.17
Structure (SMILES): N#Cc1cccc(COc2coc(C(=O)O)cc2=O)c1 [Example 15]

- pEC50 [1]: 8.00
Structure (SMILES): CCCCc1coc(C(=O)O)cc1=O [Example 47]
- lipolysis (reduction in FFA, glycerol and triglycerides) (lipolysis; 1 mg/kg po): distinctly reduced
- FFA (lipolysis; [7]): 0.25 mmol/L
- Glycerol (lipolysis; [7]): 41 µmol/L
- Triglycerides (lipolysis; [7]): 0.25 mmol/L
- FFA (lipolysis; [8]): 0.37 mmol/L
- Glycerol (lipolysis; [8]): 55 µmol/L
- Triglycerides (lipolysis; [8]): 0.37 mmol/L
- FFA (lipolysis; [9]): 0.41 mmol/L
- Glycerol (lipolysis; [9]): 70 µmol/L
- Triglycerides (lipolysis; [9]): 0.41 mmol/L
- FFA (lipolysis; [10]): 0.84 mmol/L
- Glycerol (lipolysis; [10]): 162 µmol/L
- Triglycerides (lipolysis; [10]): 0.84 mmol/L

- pEC50 [1]: 5.92
Structure (SMILES): CCCCCOc1coc(C(=O)O)cc1=O [Example 5]

- pEC50 [1]: 4.71
Structure (SMILES): O=C(O)c1cc(=O)c(OCc2cccc(Cl)c2)co1 [Example 13]

- pEC50 [1]: 4.28
Structure (SMILES): CCCCOc1coc(C(=O)O)cc1=O [Example 6]

- pEC50 [1]: 4.18
Structure (SMILES): CCCc1cc(=O)cc(C(=O)O)o1 [Example 37, 6-propyl-4-oxo-4H-pyran-2-carboxylic acid]

- pEC50 [1]: 6.66
Structure (SMILES): CC(C)Cc1coc(C(=O)O)cc1=O [Example 51]

- pEC50 [1]: 6.44
Structure (SMILES): C/C=C/c1oc(C(=O)O)cc(=O)c1OCc1ccc(C#N)cc1 [Example 18]

- pEC50 [1]: 8.00
Structure (SMILES): CCCCCc1coc(C(=O)O)cc1=O [Example 46]

- pEC50 [1]: 5.92
Structure (SMILES): Cc1ccc(C(=O)Oc2coc(C(=O)O)cc2=O)cc1 [Example 35]

- pEC50 [1]: 7.00
Structure (SMILES): C/C=C/c1oc(C(=O)O)cc(=O)c1OCc1ccc(C)cc1 [Example 16, 5-(4-methylbenzyloxy)-4-oxo-6-propenyl-4H-pyran-2-carboxylic acid]

- pEC50 [1]: 5.92
Structure (SMILES): COC(=O)/C=C/c1coc(C(=O)O)cc1=O [Example 39]

- pEC50 [1]: 4.83
Structure (SMILES): N#Cc1ccc(COc2coc(C(=O)O)cc2=O)cc1 [Example 10]

- pEC50 [1]: 5.34
Structure (SMILES): CC(C)Oc1coc(C(=O)O)cc1=O [Example 27]

- pEC50 [1]: 5.99
Structure (SMILES): CCC/C=C/c1coc(C(=O)O)cc1=O [Example 43]

- pEC50 [1]: 4.47
Structure (SMILES): CCCCCCOc1coc(C(=O)O)cc1=O [Example 23]

- pEC50 [1]: 4.92
Structure (SMILES): O=C(O)c1cc(=O)c(OCc2ccccc2F)co1 [Example 14]

- pEC50 [1]: 4.36
Structure (SMILES): O=C(O)c1cc(=O)c(OCc2ccc([N+](=O)[O-])cc2)co1 [Example 9]

- pEC50 [1]: 7.30
Structure (SMILES): CCCc1coc(C(=O)O)cc1=O [Example 48, 5-propyl-4-oxo-4H-pyran-2-carboxylic acid]
- lipolysis (reduction in FFA, glycerol and triglycerides) (lipolysis; 10 mg/kg po): distinctly reduced
- FFA (lipolysis; [11]): 0.19 mmol/L
- Glycerol (lipolysis; [11]): 35 µmol/L
- Triglycerides (lipolysis; [11]): 0.36 mmol/L
- FFA (lipolysis; [12]): 0.19 mmol/L
- Glycerol (lipolysis; [12]): 26 µmol/L
- Triglycerides (lipolysis; [12]): 0.25 mmol/L
- FFA (lipolysis; [13]): 0.16 mmol/L
- Glycerol (lipolysis; [13]): 24 µmol/L
- Triglycerides (lipolysis; [13]): 0.27 mmol/L
- FFA (lipolysis; [14]): 0.51 mmol/L
- Glycerol (lipolysis; [14]): 100 µmol/L
- Triglycerides (lipolysis; [14]): 0.41 mmol/L

- pEC50 [1]: 5.57
Structure (SMILES): CC(C)c1coc(C(=O)O)cc1=O [Example 52]

- pEC50 [1]: 4.51
Structure (SMILES): Cc1cc(C)cc(COc2coc(C(=O)O)cc2=O)c1 [Example 11]

- pEC50 [1]: 4.20
Structure (SMILES): O=C(O)c1cc(=O)c(OCc2cccc(F)c2)co1 [Example 7]

- pEC50 [1]: 4.34
Structure (SMILES): CC(C)COc1coc(C(=O)O)cc1=O [Example 26]

- pEC50 [1]: 4.54
Structure (SMILES): O=C(O)c1cc(=O)c(OCc2ccccc2)co1 [Example 3]

- pEC50 [1]: 4.52
Structure (SMILES): C=CCOc1coc(C(=O)O)cc1=O [Example 4]

- pEC50 [1]: 5.83
Structure (SMILES): CC(C)c1ccc(COc2coc(C(=O)O)cc2=O)cc1 [Example 32]

- pEC50 [1]: 4.31
Structure (SMILES): O=C(O)c1cc(=O)c(OCc2ccc(F)cc2)co1 [Example 12]

- pEC50 [1]: 4.65
Structure (SMILES): O=C(O)c1cc(=O)c(OCc2ccc(OC(F)(F)F)cc2)co1 [Example 33]

- pEC50 [1]: 5.36
Structure (SMILES): CCCc1oc(C(=O)O)cc(=O)c1OCc1ccc(C)cc1 [Example 21, 5-(4-methylbenzyloxy)-4-oxo-6-propyl-4H-pyran-2-carboxylic acid]

- pEC50 [1]: 5.13
Structure (SMILES): O=C(O)c1cc(=O)c(OCc2ccc(Cl)cc2)co1 [Example 31]

- pEC50 [1]: 4.43
Structure (SMILES): O=C(O)c1cc(=O)c(OCc2cccc([N+](=O)[O-])c2)co1 [Example 8]

- pEC50 [1]: 4.35
Structure (SMILES): CCCc1oc(C(=O)O)cc(=O)c1OCc1ccc(C#N)cc1 [Example 22]

- pEC50 [1]: 5.18
Structure (SMILES): C=C(CCC)c1coc(C(=O)O)cc1=O [Example 42]

- pEC50 [1]: 5.39
Structure (SMILES): Cc1ccc(COc2coc(C(=O)O)cc2=O)cc1 [Example 2, 5-(4-methylbenzyloxy)-4-oxo-4H-pyran-2-carboxylic acid]

- pEC50 [1]: 6.80
Structure (SMILES): CCC(C)c1coc(C(=O)O)cc1=O (centres unmarked) [Example 50]
- lipolysis (reduction in FFA, glycerol and triglycerides) (lipolysis; 3 mg/kg po): distinctly reduced
- FFA (lipolysis; [2]): 0.34 mmol/L
- Glycerol (lipolysis; [2]): 67 µmol/L
- Triglycerides (lipolysis; [2]): 0.39 mmol/L
- FFA (lipolysis; [3]): 0.43 mmol/L
- Glycerol (lipolysis; [3]): 82 µmol/L
- Triglycerides (lipolysis; [3]): 0.36 mmol/L
- FFA (lipolysis; [4]): 0.50 mmol/L
- Glycerol (lipolysis; [4]): 86 µmol/L
- Triglycerides (lipolysis; [4]): 0.58 mmol/L
- FFA (lipolysis; [5]): 0.52 mmol/L
- Glycerol (lipolysis; [5]): 101 µmol/L
- Triglycerides (lipolysis; [5]): 0.71 mmol/L
- FFA (lipolysis; [6]): 0.64 mmol/L
- Glycerol (lipolysis; [6]): 127 µmol/L
- Triglycerides (lipolysis; [6]): 0.47 mmol/L

- pEC50 [1]: 6.14
Structure (SMILES): C/C=C/c1oc(C(=O)O)cc(=O)c1OCC [Example 20]

- pEC50 [1]: 6.41
Structure (SMILES): C/C=C/c1oc(C(=O)O)cc(=O)c1OCCCCC [Example 19]

- pEC50 [1]: 6.51
Structure (SMILES): N#Cc1ccc(C(=O)Oc2coc(C(=O)O)cc2=O)cc1 [Example 34]

- pEC50 [1]: 6.00
Structure (SMILES): O=C(O)c1cc(=O)c(OCC(F)(F)F)co1 [Example 24]

- pEC50 [1]: 5.49
Structure (SMILES): CCc1ccc(COc2coc(C(=O)O)cc2=O)cc1 [Example 30]

- pEC50 [1]: 4.96
Structure (SMILES): O=C(O)c1cc(=O)c(/C=C/CCc2ccccc2)co1 [Example 45]
